Here are results for 94 compounds from ChEMBL document CHEMBL3507680, “University of Dundee, Gates Library screen for HepG2 cell viability”.

The data set in a line: Human HepG2 cell viability assay in 384 well format. It counts as toxicity, cell-based. Details: dose 125 nL, time 70.5 hour; concentration not given beside the values. To be noted: HepG2 cells, read-out: Inhibition.
As for `CN(C)C(=O)CSc1nnc(CCNC(=O)OC(C)(C)C)o1`, the cytotoxicity at 70.5 h came to 22.7%.
Take `O=S(=O)(Nc1cnc(N2CCCC2)nc1)c1ccc(C(F)(F)F)cc1`: the cytotoxicity at 70.5 h turned out to be 31.4%.
As for `O=S(=O)(Nc1cnc(N2CCCC2)nc1)c1ccc(OC(F)(F)F)cc1`, the cytotoxicity at 70.5 h is -4.76%.
In the case of `O=S(=O)(Nc1cnc(N2CCOCC2)nc1)c1ccc(Cl)cc1`, the cytotoxicity at 70.5 h worked out at 3.18%.
The value for `CC(C)CN1CCC2(Cc3ccccc3NC2=O)C1` (centres undefined) was -4.52%.
With `CCN1CCOCC2(CCCN(c3nncs3)C2)C1` (centres undefined) the figure was -2.2%; with `Cc1nnc([C@@H]2CCO[C@@H]3CCN(C(=O)Cc4ccccn4)C[C@@H]32)o1`, -0.42%.
With `CN1CCN([C@@H]2CN(C(=O)c3ccsc3)[C@@H]3CCCO[C@H]23)CC1` the figure was -2.84%; with `CN1CCN([C@@H]2CN(C(=O)c3ccnnc3)[C@@H]3CCCO[C@H]23)CC1`, -3.3%.
With `CCCN(CC)C(=O)c1nc2c(n1C)CCN(Cc1ccccc1)C2`, the cytotoxicity at 70.5 h was -4.66%.
`COCCC1COC2(CCN(C(C)=O)CC2)C1` (centres undefined): the cytotoxicity at 70.5 h was -5.06%.
As to `CCN(CC)[C@@H]1CN(Cc2cnn(C)c2)[C@@H]2COC[C@H]12`, the cytotoxicity at 70.5 h was -5.97%.
For `CN1CC[C@]2(CN(Cc3cccs3)C[C@H]2c2ccccc2)C1=O`, the cytotoxicity at 70.5 h was -4.05%.
As to `O=C(C1CC=CC1)N1CC[C@H]2[C@@H]1CCC(=O)N2c1ccccc1`, the cytotoxicity at 70.5 h is -3.86%.
With `Cc1nnc([C@@H]2CC[C@@H]3[C@@H](CCN3CC3CCOCC3)O2)o1` the figure was -1.38%; with `CCCS(=O)(=O)NCC1OCCc2cn(CC3CCOCC3)nc21` (centres undefined), 30.2%.
The value for `Cc1cnc(N2CCC3(CC2)CC3C(=O)NCC2CC2)nc1` (centres undefined) was 11.9%.
The value for `COc1ccc(N2CCOCC3(CCCN(c4cnccn4)C3)C2)cc1` (centres undefined) was -1.59%; that for `COCC1CN(Cc2ccoc2)Cc2cn(CC3CCCC3)nc21` (centres undefined) was -4.4%.
In the case of `O=S(=O)(C1CC1)N1CCC2(CC1)COC(COc1ccccn1)C2` (centres undefined), the cytotoxicity at 70.5 h is -5.06%.
With `CCS(=O)(=O)N1CCC2(CC1)CC(OCC1CC1)CO2` (centres undefined) the figure was -7.89%.
As for `COCC1CN(Cc2ccoc2)Cc2cn(CC3CCOCC3)nc21` (centres undefined), the cytotoxicity at 70.5 h is -9.14%.
On to `COc1ccc(N2CCCC3(C2)CN(c2ncccn2)CCO3)cc1` (centres undefined), for which the cytotoxicity at 70.5 h is -2.45%.
For `CCc1ccc(C(=O)N2CCCn3nnc(Cn4cccn4)c3C2)cc1`, the cytotoxicity at 70.5 h is -5.86%.
Regarding `O=S(=O)(C1CC1)N1CCOCC2(CN(c3ncccn3)CCO2)C1` (centres undefined), the cytotoxicity at 70.5 h is -9.2%.
The value for `O=C(NCc1ccccn1)[C@@H]1COC[C@H]2CNC[C@H]21` was -12.9%; that for `O=S(=O)(C1CC1)N1CCC2(CC1)COC(COc1cccnc1)C2` (centres undefined) was -10.2%; that for `CCOCC1CN(Cc2ccco2)Cc2ccnn2C1` (centres undefined) was -5.17%.
On to `CCC(CC)CN1C[C@@H]2OCCN(Cc3cnn(C)c3)[C@@H]2C1`, for which the cytotoxicity at 70.5 h is -3.01%.
Turning to `Cn1cc(CN2CCO[C@H]3CN(Cc4ccco4)C[C@H]32)cn1`, the cytotoxicity at 70.5 h is -2.62%.
Regarding `Cc1ccoc1C(=O)N1CCCC2(CCCN2S(C)(=O)=O)C1` (centres undefined), the cytotoxicity at 70.5 h is -3.55%.
For the compound `CS(=O)(=O)N1CCCC12CCCN(C(=O)c1ccc[nH]1)C2` (centres undefined), the cytotoxicity at 70.5 h worked out at 9.82%.
Consider `c1cncc(COCC2CN(Cc3ccncc3)Cc3ccnn3C2)c1` (centres undefined), for which the cytotoxicity at 70.5 h was 1.86%.
`CS(=O)(=O)N1CCCCC12CCN(C(=O)c1ccccc1)C2` (centres undefined): the cytotoxicity at 70.5 h is -8.78%.
For the compound `c1cncc(CN2CCC3(CCCN(c4nncs4)C3)C2)c1` (centres undefined), the cytotoxicity at 70.5 h is -7.53%.
With `CN1CCN(C(=O)c2n[nH]c3c2CN(Cc2nccs2)CC3)CC1` the figure was -12%.
For the compound `c1ccc(CN2Cc3ccnn3CC(COCc3cccnc3)C2)nc1` (centres undefined), the cytotoxicity at 70.5 h was -9.03%.
For the compound `CCc1nn(-c2cc(Oc3cc(C)ccc3C)nc(C)n2)c(N)c1C#N`, the cytotoxicity at 70.5 h was determined as 28.3%.
As to `CC1CCN(C(=O)Cn2nc(Br)nc2Br)CC1`, the cytotoxicity at 70.5 h was -5.71%.
`Cn1c(N)c2c(=O)n(C)c(-c3ccc(Cl)cc3Cl)cc2c(C#N)c1=O`: the cytotoxicity at 70.5 h was -4.83%.
For the compound `Cc1cnc(N2C(=O)CSC2c2ccccc2)s1` (centres undefined), the cytotoxicity at 70.5 h is -9.48%.
Regarding `CN(C)CCCNC(=O)CNC(=O)N1CCc2c([nH]c3ccccc23)C1`, the cytotoxicity at 70.5 h was determined as 35.2%.
Regarding `CC(=O)c1cn(CCC(=O)NCCC(=O)O)c2ccccc12`, the cytotoxicity at 70.5 h is -12.4%.
Take `COc1cccc2c1ccn2CC(=O)N[C@@H](CCSC)C(=O)O`: the cytotoxicity at 70.5 h was -3.11%.
The value for `O=C1CC(c2cccc(O)c2)c2c(c(C(=O)O)cn2-c2ccccc2)N1` (centres undefined) was 4.21%; that for `O=C1CC(c2cccnc2)c2c(c(C(=O)O)cn2-c2ccccc2)N1` (centres undefined) was -1.92%.
For `Cc1ccc2c(ccn2CC(=O)NC[C@@H]2CCCN3CCCC[C@H]23)c1`, the cytotoxicity at 70.5 h was -2.59%.
Consider `COC(=O)CC(c1ccccc1)c1oc(C)cc(=O)c1O` (centres undefined), for which the cytotoxicity at 70.5 h is 6.19%.
Consider `CC[C@H](C)[C@H](NC(=O)c1ccccc1-n1cnnn1)C(=O)OC`, for which the cytotoxicity at 70.5 h worked out at 33.9%.
Regarding `CC(C)[C@H](NC(=O)NC1CCS(=O)(=O)C1)C(=O)Nc1cccnc1` (some centres undefined), the cytotoxicity at 70.5 h turned out to be 9.45%.
Take `Cn1ccc2c(C(=O)N3CCC(C(N)=O)CC3)cccc21`: the cytotoxicity at 70.5 h is -2.97%.
With `O=C(COc1coc(CN2CCCC2)cc1=O)NCc1ccccc1Cl` the figure was 3.62%; with `O=C(Cn1nc2c(cc1=O)CCCC2)N[C@@H](C(=O)O)c1ccccc1`, -3.48%; with `COc1ccc(C2CC(=O)Nc3c2cnn3C)cc1` (centres undefined), 4.68%.
Consider `CC(=O)c1cccc(NC(=O)COc2c(C)n(C)ccc2=O)c1`, for which the cytotoxicity at 70.5 h is -7.44%.
The value for `O=C(COc1coc(CN2CCCCC2)cc1=O)Nc1ccc(Cl)cc1` was -3.76%; that for `Cn1ncc2c1NC(=O)CC2c1ccc(O)cc1` (centres undefined) was 7.25%.
For `Cc1n[nH]c2c1C(c1cnn(C)c1)SCC(=O)N2` (centres undefined), the cytotoxicity at 70.5 h was -6.84%.
Regarding `CCn1c(=O)nc2n1C(=O)N(c1cccc(Cl)c1)C2`, the cytotoxicity at 70.5 h is -1.37%.
With `COc1ccc(C2SC(C)=Nc3c2c(=O)[nH]n3C2CCCCC2)cc1O` (centres undefined), the cytotoxicity at 70.5 h stood at 2.14%.
For the compound `COCC(=O)NCCn1ccc2c(OC)cccc21`, the cytotoxicity at 70.5 h is -6.28%.
Regarding `CC(C)n1ncc2c1NC(=O)CC21C(=O)Nc2c(Cl)cc(Cl)cc21` (centres undefined), the cytotoxicity at 70.5 h is -8.73%.
The value for `CC(C)n1ncc2c1NC(=O)CSC2C(C)(C)C` (centres undefined) was -2.79%; that for `O=C(CCc1nc2cccnc2[nH]1)Nc1cccnc1` was -16.2%.
For `CC(C)CC1SCC(=O)Nc2c1cnn2-c1ccc(F)cc1` (centres undefined), the cytotoxicity at 70.5 h was -6.67%.
With `O=C1CSC(c2ccc(O)c(Cl)c2)c2c(n(C3CCOCC3)[nH]c2=O)N1` (centres undefined) the figure was 6.82%; with `CCS(=O)(=O)N1CCCC2(COCCN(c3nnc(C)o3)C2)C1` (centres undefined), -1.84%; with `Cc1ncsc1CN1CCn2c(COCC3CC3)cnc2C1C` (centres undefined), -2.63%.
On to `CC(C)NC(=O)C[C@H]1[C@H]2CN(C(=O)Cc3ccccn3)C[C@@H]12`, for which the cytotoxicity at 70.5 h came to 1.47%.
Regarding `CC(C)CN1CCCC2(CCN(c3ccc(C#N)cn3)C2)C1` (centres undefined), the cytotoxicity at 70.5 h worked out at 2.01%.
As to `CN1CC[C@]2(CN(Cc3nccs3)C[C@H]2c2ccccc2)C1=O`, the cytotoxicity at 70.5 h turned out to be 4.14%.
For `CNC(=O)[C@@H]1CC[C@@H]2[C@@H](CCN2Cc2cn(C)c3ccccc23)O1`, the cytotoxicity at 70.5 h was -3.34%.
With `N#Cc1ccc(N2CCC3(CCCN(c4ccccn4)C3)C2)nc1` (centres undefined) the figure was -1.5%; with `O=S(=O)(C1CC1)N1CC[C@H](OCC2CC2)[C@@H]1Cc1cccnc1`, -4.98%.
`CN(C)C(=O)C1CCC2(CCN(Cc3cnn(C)c3)CC2)C1` (centres undefined): the cytotoxicity at 70.5 h was -7.73%.
For the compound `Cc1noc(C)c1CN1C[C@H](OCC(=O)N(C)C)[C@H]2OCCC[C@H]21`, the cytotoxicity at 70.5 h was -6.96%.
Regarding `Cc1cccc(CN2C[C@@H]3OCCN(c4cnccn4)[C@@H]3C2)n1`, the cytotoxicity at 70.5 h was -4.63%.
With `O=C(c1cccnc1)N1CCOC2(COCCN(c3cncnc3)C2)C1` (centres undefined) the figure was -9.01%; with `Cc1noc(C)c1CN1C[C@H](OCC(=O)N(C)C)[C@H]2COC[C@H]21`, -6.89%.
With `CN(C)S(=O)(=O)N1C[C@H]2CCC[C@@]2(COCc2cccnc2)C1` the figure was -6.86%; with `Cc1noc(C)c1CN1C[C@H](OCC2CC2)[C@H]2COC[C@H]21`, -7.4%; with `COCC(=O)N1CCOC2(CCCN(c3cnccn3)C2)C1` (centres undefined), -9.25%.
With `O=C(N1CCCC1)N1CC[C@H]2OCC[C@@]2(COc2ncccc2F)C1` the figure was -1.3%.
As to `Fc1ccc(CN2CCC3(CCCN(c4nncs4)C3)C2)cc1` (centres undefined), the cytotoxicity at 70.5 h is -2.74%.
In the case of `O=C(c1ncccn1)N1CC[C@H]2OCC[C@@]2(COc2ccccn2)C1`, the cytotoxicity at 70.5 h is -6.64%.
With `c1coc(CN2Cc3ccnn3CC(COCC3CC3)C2)c1` (centres undefined) the figure was -6.27%; with `Fc1cnc(N2CC[C@@H]3O[C@H](COCc4ccccn4)CC[C@@H]32)nc1`, -3.08%.
For `Cc1ccc(N2CC[C@@H]3O[C@@H](COCc4cccnc4)CC[C@@H]32)nn1`, the cytotoxicity at 70.5 h was -3.24%.
As for `O=C(NCc1ccccn1)[C@@H]1COC[C@H]2CN(c3ncccn3)C[C@H]21`, the cytotoxicity at 70.5 h was -6.07%.
Consider `c1cncc(OCC2CC3(CCN(CC4CC4)CC3)CO2)c1` (centres undefined), for which the cytotoxicity at 70.5 h is -10.5%.
As to `Cc1nc(C)n(CC2CN(Cc3cccnc3)Cc3nccn3C2)n1` (centres undefined), the cytotoxicity at 70.5 h is -1.38%.
Regarding `Cc1ncsc1CN1C[C@H](OCc2ccncc2)[C@H]2OCCC[C@H]21`, the cytotoxicity at 70.5 h is -8.48%.
`CC(C)N1[C@@H](C(=O)NCCN(C)C)C[C@H]2CN(c3ncccn3)C[C@H]21`: the cytotoxicity at 70.5 h is -2.96%.
On to `O=C(NCCc1ccccc1)C1CCC(Cn2cnnn2)CC1` (centres undefined), for which the cytotoxicity at 70.5 h was -2.34%.
